The results in this text go back to US11040028B2, “Penicinotam derivative, preparation method and use thereof” (OCEAN UNIVERSITY OF CHINA, priority 2017, dated 2021).

Broadly, the IC50 is the concentration that gives 50% inhibition.

Holding throughout (assay type): cell-based
For assay [1], the system named is human hepatic stellate cells LX-2. The experiment in a line: Anti-fibrosis activity test: inhibition of proliferation of human hepatic stellate cells LX-2 (CCK-8). The note with it: Homo sapiens, 48 h, human hepatic stellate cells LX-2, CCK-8, 48 hours. A digest of the protocol: (§1)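 Using CCK-8 colorimetry (450 nm), the study assessed growth inhibition after 48 h compound exposure; plating density was 2×10^4 cells/mL with 24 h attachment beforehand. IC50 was calculated from (1−Ai/Ao)×100%.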

Assay [2] relates to human lung fibroblasts HFL1. The experiment in a line: Anti-fibrosis activity test: inhibition of proliferation of human lung fibroblasts HFL1 (CCK-8). To be noted: Homo sapiens, HFL1, 48 h, human lung fibroblasts HFL1, CCK-8, 48 hours. A digest of the protocol: as §1
The test system of assay [3] is cardiac fibroblast RAT-iCell-C002. The assay can be described thus: Anti-fibrosis activity test: inhibition of proliferation of cardiac fibroblast RAT-iCell-C002 (CCK-8). The note with it: Cardiac fibroblast, 48 h, cardiac fibroblast RAT-iCell-C002, CCK-8, 48 hours. A digest of the protocol:
as §1

In assay [4] the test system is human embryonic lung fibroblast IMR-90. The assay can be described thus: Anti-fibrosis activity test: inhibition of proliferation of human embryonic lung fibroblast IMR-90 (CCK-8). The note with it: human embryonic lung fibroblast IMR-90, CCK-8, 48 hours. A digest of the protocol: as §1
Assay [5] deals with human dermal fibroblasts CCC-ESF-1. The experiment in a line: Anti-fibrosis activity test: inhibition of proliferation of human dermal fibroblasts CCC-ESF-1 (CCK-8). To be noted: Fibroblast; human dermal fibroblasts CCC-ESF-1, CCK-8, 48 hours. The procedure, abridged: as §1
A further assay concerns BHK-21 cells. The experiment in a line: Anti-fibrosis activity test: inhibition of BHK-21 cell proliferation (CCK-8). To be noted: Mesocricetus auratus, BHK-21, 48 h, CCK-8, 48 hours after administration. A digest of the protocol: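 Cells seeded at 2×10^4 cells/mL, allowed to adhere 24 hours, then exposed to graded compound concentrations in triplicate for 48 hours at 37° C, 5% CO2. CCK-8 added for 2 hours, absorbance read at 450 nm; inhibition versus blank control used to derive IC50. Pirfenidone served as positive control.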

For assay [6], the system named is human fibrosarcoma cells HT-1080. The experiment in a line: Anti-fibrosis activity test: inhibition of proliferation of human fibrosarcoma cells HT-1080 (CCK-8). To be noted: Homo sapiens, HT-1080, 48 h, human fibrosarcoma cells HT-1080, CCK-8, 48 hours. A digest of the protocol:
as §1

The test system of assay [7] is mouse macrophages (RAW264.7). The assay can be described thus: Lipopolysaccharide-induced NO secretion in macrophages (Griess). To be noted: Mus musculus, RAW264.7, 24 h, RAW264.7, LPS 1 μg/ml, a/b isomers given as first/second symbol, read-out: IC50 (μM), inhibition of lipopolysaccharide-induced NO secretion in macrophages. The procedure, abridged:
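Indomethacin and resveratrol served as positive controls while compounds were tested across concentrations on LPS-stimulated (1 μg/ml, 24 h) RAW264.7 cells. NO output was quantified colorimetrically (Griess, 548 nm).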
(The Griess reaction detects nitrite, a stable product of nitric oxide.)

For a further assay, the system named is NF-κB. The experiment in a line: Immunological activity test: inhibition of NF-κB activity. The note with it: initial concentration of 30 μM; a/b isomers given as first/second symbol; read-out: IC50 (μM), inhibitory activity against NF-κB. A digest of the protocol:
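Initial screen at 30 μM; parthenolide positive control. IC50s derived from follow-up analysis.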

The structures appear in SMILES notation.

Take `O=C1c2c(nc3cc(OC(F)(F)F)ccc3c2O)-c2cccn21` [Compound 548b, 9-hydroxy-6-trifluoromethoxy-10H-pyrrolizino[1,2-b]quinolin-10-one]: the IC50 (in assay [1]; in assay [2]; in assay [3]; in assay [4]; in assay [5]; with BHK-21 cells) was 0.05 to 5 mM in each case. The results for the IC50 (in [6]; in [7]; in the assay with NF-κB) were 0.05 to 5 mM, 1 to 10 µM and 1 to 10 µM, respectively.
As for `COc1ccc2c(=O)c3c([nH]c2c1)-c1cccn1C3=O` [Compound 560a, 6-Methoxy-9H-pyrrolizino[1,2-b]quinoline-9,10(4H)-dione], the IC50 (in assay [1]; in assay [2]; in [3]; in [4]; in assay [5]; with BHK-21 cells) was 0.05 to 5 mM each time. The figures for the IC50 (in assay [6]; in assay [7]; in the assay with NF-κB) were 0.05 to 5 mM, 10 to 50 µM and 1 to 10 µM, respectively.
On to `COc1ccc2c(O)c3c(nc2c1)-c1cccn1C3=O` [Compound 560b, 9-hydroxy-6-methoxy-10H-pyrrolizino[1,2-b]quinolin-10-one], for which the IC50 (in assay [1]; in assay [2]; in assay [3]; in assay [4]; in assay [5]; in the assay on BHK-21 cells) was 0.05 to 5 mM throughout. Besides, the IC50 in assay [6] lay in the range of 0.05 to 5 mM; in assay [7], 1 to 10 µM; in the assay on NF-κB, 1 to 10 µM.
For `O=C1c2c(n(Cc3ccc(F)cc3Cl)c3ccccc3c2=O)-c2cccn21` [Compound 572a, 4-(2-Chloro-4-fluorobenzyl)-9H-pyrrolizino[1,2-b]quinoline-9,10(4H)-dione], the IC50 (in [1]; in [2]; in assay [3]; in assay [4]; in [5]; in the assay with BHK-21 cells) was 0.05 to 5 mM throughout. Moreover, the IC50 was 0.05 to 5 mM in assay [6], 0.1 to 1 µM in assay [7] and 0.001 to 0.1 µM in the assay on NF-κB.
Consider `O=C1c2c(nc3ccccc3c2OCc2ccc(F)cc2Cl)-c2cccn21` [Compound 572b, 9-((2-chloro-4-fluorobenzyl)oxy)-10H-pyrrolizino[1,2-b]quinolin-10-one], for which the IC50 (in assay [1]; in assay [2]; in assay [3]; in assay [4]; in [5]; in the assay on BHK-21 cells) was 0.05 to 5 mM each time. Besides, the figures for the IC50 (in assay [6]; in [7]; with NF-κB) were 0.05 to 5 mM, 1 to 10 µM and 1 to 10 µM, respectively.
In the case of `O=C1c2c(n(Cc3cc(F)ccc3F)c3ccccc3c2=O)-c2cccn21` [Compound 573a, 4-(2,5-Difluorobenzyl)-9H-pyrrolizino[1,2-b]quinoline-9,10(4H)-dione], the IC50 is 0.05 to 5 mM in [1]; 0.05 to 5 mM in assay [2]; 0.05 to 5 mM in assay [3]; less than 0.05 mM in [4]; 0.05 to 5 mM in assay [5]; 0.05 to 5 mM with BHK-21 cells. In addition, the IC50 was 0.05 to 5 mM in [6], 1 to 10 µM in assay [7] and 1 to 10 µM with NF-κB.
In the case of `O=C1c2c(nc3ccccc3c2OCc2cc(F)ccc2F)-c2cccn21` [Compound 573b, 9-((2,5-difluorobenzyl)oxy)-10H-pyrrolizino[1,2-b]quinolin-10-one], the IC50 was 0.05 to 5 mM in [1]; 0.05 to 5 mM in assay [2]; less than 0.05 mM in assay [3]; 0.05 to 5 mM in assay [4]; 0.05 to 5 mM in [5]; 0.05 to 5 mM in the assay with BHK-21 cells. Besides, the IC50 lay within 0.05 to 5 mM in assay [6], 0.1 to 1 µM in assay [7] and 1 to 10 µM in the assay with NF-κB.
In the case of `Cc1ccccc1Cn1c2c(c(=O)c3ccccc31)C(=O)n1cccc1-2` [Compound 574a, 4-(2-Methylbenzyl)-9H-pyrrolizino[1,2-b]quinoline-9,10(4H)-dione], the IC50 (in [1]; in assay [2]; in assay [3]; in assay [4]; in assay [5]; in the assay on BHK-21 cells) was 0.05 to 5 mM throughout. Besides, the IC50 in assay [6] lay in the range of 0.05 to 5 mM; in assay [7], 1 to 10 µM; with NF-κB, 1 to 10 µM.
Consider `Cc1ccccc1COc1c2c(nc3ccccc13)-c1cccn1C2=O` [Compound 574b, 9-((2-methylbenzyl)oxy)-10H-pyrrolizino[1,2-b]quinolin-10-one], for which the IC50 (in [1]; in assay [2]; in assay [3]; in [4]; in [5]; with BHK-21 cells) was 0.05 to 5 mM in each case. Besides, the IC50 was in the range of 0.05 to 5 mM in assay [6], 10 to 50 µM in assay [7] and 1 to 10 µM in the assay on NF-κB.
As to `O=C1c2c(n(Cc3ccc(I)cc3)c3ccccc3c2=O)-c2cccn21` [Compound 575a, 4-(4-Iodobenzyl)-9H-pyrrolizino[1,2-b]quinoline-9,10(4H)-dione], the IC50 in assay [1] is 0.05 to 5 mM; in assay [2], 0.05 to 5 mM; in assay [3], 0.05 to 5 mM; in assay [4] it was 0.05 to 5 mM; in assay [5], 0.05 to 5 mM; in the assay with BHK-21 cells, less than 0.05 mM. Moreover, the IC50 in [6] fell in the range of 0.05 to 5 mM; in assay [7], 1 to 10 µM; in the assay with NF-κB, 0.1 to 1 µM.
For the molecule `O=C1c2c(nc3ccccc3c2OCc2ccc(I)cc2)-c2cccn21` [Compound 575b, 9-((4-iodobenzyl)oxy)-10H-pyrrolizino[1,2-b]quinolin-10-one], the IC50 (in assay [1]; in assay [2]; in assay [3]; in assay [4]; in [5]; in the assay with BHK-21 cells) was 0.05 to 5 mM each time. In addition, the IC50 was in the range of 0.05 to 5 mM in assay [6], 1 to 10 µM in [7] and 1 to 10 µM in the assay with NF-κB.
Turning to `O=C1c2c(n(Cc3ccccc3I)c3ccccc3c2=O)-c2cccn21` [Compound 576a, 4-(2-Iodobenzyl)-9H-pyrrolizino[1,2-b]quinoline-9,10(4H)-dione], the IC50 (in [1]; in assay [2]; in [3]; in assay [4]; in [5]; with BHK-21 cells) was 0.05 to 5 mM in each case. Further, the IC50 in assay [6] was in the range of 0.05 to 5 mM; in assay [7], 1 to 10 µM; in the assay on NF-κB it was 1 to 10 µM.
For the molecule `O=C1c2c(nc3ccccc3c2OCc2ccccc2I)-c2cccn21` [Compound 576b, 9-((2-iodobenzyl)oxy)-10H-pyrrolizino[1,2-b]quinolin-10-one], the IC50 (in assay [1]; in assay [2]; in [3]; in [4]; in assay [5]; in the assay on BHK-21 cells) was 0.05 to 5 mM each time. For the same molecule, the results for the IC50 (in [6]; in assay [7]; in the assay with NF-κB) were 0.05 to 5 mM, 1 to 10 µM and 1 to 10 µM, respectively.
With `N#Cc1ccccc1Cn1c2c(c(=O)c3ccccc31)C(=O)n1cccc1-2` [Compound 577a, 2-((9,10-Dioxo-9H-pyrrolizino[1,2-b]quinolin-4(10H)-yl)methyl)benzonitrile], the IC50 was less than 0.05 mM in assay [1]; 0.05 to 5 mM in assay [2]; 0.05 to 5 mM in [3]; 0.05 to 5 mM in [4]; 0.05 to 5 mM in [5]; 0.05 to 5 mM in the assay on BHK-21 cells. Besides, the half-maximal inhibitory concentration (IC50) in [6] fell in the range of 0.05 to 5 mM; in assay [7] it was 1 to 10 µM; in the assay with NF-κB, 1 to 10 µM.
As for `N#Cc1ccccc1COc1c2c(nc3ccccc13)-c1cccn1C2=O` [Compound 577b, 2-(((10-oxo-10H-pyrrolizino[1,2-b]quinolin-9-yl)oxy)methyl)benzonitrile], the IC50 (in [1]; in [2]; in assay [3]; in assay [4]; in assay [5]; with BHK-21 cells) was 0.05 to 5 mM in each case. Moreover, the IC50 in [6] lay in the range of 0.05 to 5 mM; in [7], 1 to 10 µM; with NF-κB, 1 to 10 µM.
